Paper PMC11988454, “Discovery of synthetic small molecules targeting the central regulator of Salmonella pathogenicity” (Science Advances, 2025)
Values joined by “and” are separate entries in the source; they are usually repeats but may differ in a detail not shown here. Equal entries are not always repeated.

Legend:
SPI-encoded genes = format: cell-based, S. Typhimurium
Experimental: Salmonella was grown for 5 hours at 37°C in LB medium in the presence of 100 μM C26 or 1% (v/v) DMSO as a control. After growth, bacteria were harvested by centrifugation, and total RNA was isolated using the Qiagen RNeasy mini kit according to the manufacturer’s protocol. RNA-seq was performed on a HiSeq2500 with a 2 x 125–base pair paired-end read protocol. The Illumina Casava software was used to demultiplex the sequenced reads providing individual raw fastq sample files. Raw fastq files were prefiltered using the chastity filter to remove reads that contain a “Y” flag. FastQC (https://www.bioinformatics.babraham.ac.uk/projects/fastqc/, version v0.11.4) was used to determine the quality of the resulting fastq files. Subsequently, an adapter trimming/removal step was conducted with Cutadapt (https://pypi.python.org/pypi/cutadapt/, version 1.8.3). […] TopHat2 (https://ccb.jhu.edu/software/tophat/index.shtml, version v2.0.12) was used as aligner to map the remaining quality controlled reads to the Salmonella genome. Read counting to features (e.g., genes or exons) in the genome was performed with HTSeq-count (https://htseq.readthedocs.io/en/master/htseqcount.html, version 0.6.0.). Counting was performed using “union” mode on the feature “gene.” The stranded option was also set to “–stranded=no” to indicate to count features on both strands. Furthermore, the -r parameter from HTSeq was set to “pos” as this is the default of the output of TopHat’s “accepted_hits.bam” mapping file. For differential expression analysis, the raw read count table resulting from HTSeq counting is used and fed into the R package DESeq2 (version 1.10.1). Graphs were also produced in the R language (R version 3.2.1) mainly using the R package ggplot2 (version 2.2.0). Reports were produced using the R package rmarkdown (version 1.3).

[1] = system: T3SS-2 (SseF-HiBiT secretion); assay: SseF-HiBiT injection assay in LgBiT-expressing RAW 264.7 macrophages; format: cell-based, S. Typhimurium; settings: C26 100 μM, inside RAW 264.7 macrophages, 7 hours after infection, MOI 10
Experimental: SseF injection assay was performed using the split-Nanoluc (HiBiT/LgBiT) system as described for SipA. In a white 96-well plate (NUNC) with optical bottom, 10^4 LgBiT-expressing RAW 264.7 macrophages ([65]) were seeded in 100 μl of DMEM, 24 hours before the infection. The strain harboring the plasmid-encoded sseF-HiBiT and the isogenic strain ΔssaV were grown in LB-NaCl at 37°C at 180 rpm until an OD600 of 0.9. Bacteria were washed twice with HBSS (Serva) and then used to infect preseeded cells on a 96-well plate with an MOI of 10. The plate was centrifuged at 300g for 3 min and then incubated for 30 min to allow invasion. Afterward, macrophages were washed with DMEM and incubated for 1 hour in DMEM supplemented with gentamicin (100 μg/ml) to eliminate noninvading bacteria. The medium was replaced by DMEM with gentamicin (16 μg/ml), supplemented with either DMSO (1%) or C26 at different concentrations. Cells were incubated at 37°C with 5% (v/v) CO2 for 5.5 hours (total infection time of 7 hours) and then washed twice with 1x PBS before luminescence measurements were carried out following the manufacturer’s instructions.

HilD = biological target: T1, HilD (Salmonella typhimurium, UniProt P0CL08); assay: SEC-MALS of HilD; parameters: species or system S. Typhimurium
T1 construct: His6-SUMO (N, cleaved yes); made in house; host or cells: E. coli C41(DE3)
Experimental: SEC-MALS experiments were performed using a Superdex 75 Increase 10/300 GL column (Cytiva) coupled to a miniDAWN Tristar Laser photometer (Wyatt) and a RI-2031 differential refractometer (JASCO). HilD (100 μM) was incubated with 1% (v/v) of either DMSO or C26 (10 mM dissolved in DMSO) for 20 min at r.t. Fifty microliters of HilD samples was loaded onto the SEC column, equilibrated with SEC buffer, and separated using a flow rate of 0.5 ml min^−1. Data analysis was carried out with the ASTRA v7.3.0.18 software (Wyatt).

HilD dimer = biological target: T2, HilD dimer (Salmonella typhimurium, UniProt P0CL08); assay: BS3 cross-linking of HilD; format: biochemical, S. Typhimurium; settings: oleic acid 50 and 100 μM; C26 up to 200 μM
T2 construct: His6-SUMO (N, cleaved yes); made in house; host or cells: E. coli C41(DE3)
Experimental: BS^3 cross-linking of HilD was performed as previously described ([39]). In summary, HilD (10 μM) was first incubated with C26 or oleic acid in SEC buffer for 20 min at r.t., with a final DMSO concentration of 1% (v/v). HilD was then cross-linked by incubation with 0.2 mM BS^3 (Thermo Fisher Scientific, Pierce, A39266) at r.t. for 1 hour, before the reaction was quenched by the addition of 50 mM Tris (pH 7.5). Samples were analyzed using SDS-PAGE and visualized by silver staining.

HilD variants = assay: Plasmid-based whole-cell assay, most frequent HilD substitutions; parameters: species or system S. enterica; settings: C26 100 μM, 19 functional variants
Experimental: The retrieved sequences and script used to determine the most frequent point mutations in HilD can be accessed on the Zenodo repository. Site-directed mutagenesis was performed using KOD polymerase (Novagen). PhilA activation was monitored as described above using the plasmid-based whole-cell fluorescence assay.

[2] = C26 100 μM vs DMSO, single replicates (Fig 2E)
[3] = C26 100 μM, size of the down-regulation given without sign

T1 sequence (P0CL08 whole entry): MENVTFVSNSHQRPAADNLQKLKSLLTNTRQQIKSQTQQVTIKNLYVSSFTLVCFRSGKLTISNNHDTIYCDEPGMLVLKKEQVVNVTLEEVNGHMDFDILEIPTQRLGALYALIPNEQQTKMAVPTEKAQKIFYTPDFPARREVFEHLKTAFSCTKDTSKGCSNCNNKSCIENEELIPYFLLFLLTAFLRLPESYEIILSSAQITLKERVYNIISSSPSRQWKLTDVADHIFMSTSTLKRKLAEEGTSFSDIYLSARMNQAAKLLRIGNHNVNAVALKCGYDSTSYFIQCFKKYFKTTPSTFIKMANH
T2 sequence (P0CL08 whole entry): as above

SMILES: CN(CC(=O)NCc1ccc2c(c1)OCO2)Cc1ccc(Br)s1 [C26, N-(benzo[d][1,3]dioxol-5-ylmethyl)-2-{[(5-bromothiophen-2-yl)methyl](methyl)amino}acetamide]
- Log2 Fold change STM0972 (SPI-encoded genes; [2]): -1.019 and -1.567 and -1.468
- Log2 Fold change STM05625 (SPI-encoded genes; [2]): -1.06 and -1.782 and -1.1981
- Log2 Fold change avrA (SPI-encoded genes; [2]): -1.134 and -2.023 and -1.399
- Log2 Fold change hilA (SPI-encoded genes; [2]): -3.571 and -4.424 and -3.961
- Log2 Fold change hilC (SPI-encoded genes; [2]): -2.8 and -3.816 and -2.688
- Log2 Fold change hilD (SPI-encoded genes; [2]): -1.794 and -2.09 and -1.995
- Log2 Fold change iacP (SPI-encoded genes; [2]): -2.394 and -3.567 and -2.412
- Log2 Fold change iagB (SPI-encoded genes; [2]): -3.642 and -4.006 and -3.534
- Log2 Fold change invA (SPI-encoded genes; [2]): -3.221 and -3.81 and -3.166
- Log2 Fold change invB (SPI-encoded genes; [2]): -2.867 and -3.637 and -3.183
- Log2 Fold change invC (SPI-encoded genes; [2]): -2.536 and -3.183 and -2.8784
- Log2 Fold change invE (SPI-encoded genes; [2]): -3.292 and -4.06 and -3.2144
- Log2 Fold change invF (SPI-encoded genes; [2]): -3.621 and -4.389 and -3.592
- Log2 Fold change invG (SPI-encoded genes; [2]): -3.834 and -4.335 and -3.589
- Log2 Fold change invH (SPI-encoded genes; [2]): -3.135 and -3.596 and -3.2198
- Log2 Fold change invI (SPI-encoded genes; [2]): -3.283 and -3.556 and -3.358
- Log2 Fold change orgA (SPI-encoded genes; [2]): -1.913 and -2.484 and -2.0655
- Log2 Fold change orgB (SPI-encoded genes; [2]): -1.03 and -1.516 and -1.313
- Log2 Fold change orgC (SPI-encoded genes; [2]): -0.8446 and -1.317 and -1.218
- Log2 Fold change pagC (SPI-encoded genes; [2]): -0.9557 and -1.642 and -1.303
- Log2 Fold change pipB (SPI-encoded genes; [2]): -1.346 and -1.626 and -1.791
- Log2 Fold change prgH (SPI-encoded genes; [2]): -2.242 and -3.146 and -2.589
- Log2 Fold change prgI (SPI-encoded genes; [2]): -2.528 and -3.17 and -2.85
- Log2 Fold change prgJ (SPI-encoded genes; [2]): -2.351 and -3.201 and -2.717
- Log2 Fold change prgK (SPI-encoded genes; [2]): -2.159 and -2.912 and -2.508
- Log2 Fold change rtsA (SPI-encoded genes; [2]): -3.522 and -4.691 and -3.546
- Log2 Fold change sicA (SPI-encoded genes; [2]): -2.525 and -3.5667 and -2.5609
- Log2 Fold change sicP (SPI-encoded genes; [2]): -1.008 and -1.8772 and -1.275
- Log2 Fold change sifB (SPI-encoded genes; [2]): -1.447 and -2.07 and -1.848
- Log2 Fold change sipA (SPI-encoded genes; [2]): -2.154 and -3.4073 and -2.1103
- Log2 Fold change sipB (SPI-encoded genes; [2]): -2.364 and -3.5554 and -2.316
- Log2 Fold change sipC (SPI-encoded genes; [2]): -2.344 and -3.615 and -2.313
- Log2 Fold change sipD (SPI-encoded genes; [2]): -2.421 and -3.506 and -2.2134
- Log2 Fold change sopB (SPI-encoded genes; [2]): -1.308 and -2.976 and -1.42
- Log2 Fold change sopD (SPI-encoded genes; [2]): -1.407 and -0.6715 and -1.948
- Log2 Fold change sopE2 (SPI-encoded genes; [2]): -1.5 and -2.647 and -1.472
- Log2 Fold change spaN (SPI-encoded genes; [2]): -2.873 and -3.527 and -3.123
- Log2 Fold change spaO (SPI-encoded genes; [2]): -2.648 and -3.446 and -2.941
- Log2 Fold change spaP (SPI-encoded genes; [2]): -2.823 and -3.907 and -2.993
- Log2 Fold change spaQ (SPI-encoded genes; [2]): -3 and -2.087 and -2.907
- Log2 Fold change spaR (SPI-encoded genes; [2]): -1.963 and -4.022 and -1.926
- Log2 Fold change spaS (SPI-encoded genes; [2]): -2.051 and -2.854 and -2.155
- Log2 Fold change sprB (SPI-encoded genes; [2]): -2.031 and -3.538 and -1.986
- Log2 Fold change ssaG (SPI-encoded genes; [2]): -1.637 and -2.322 and -2.8413
- log2 fold change expression RtsA (SPI-encoded genes; [3]): 3.82
- log2 fold change expression hilA (SPI-encoded genes; [3]): 3.94
- log2 fold change expression hilC (SPI-encoded genes; [3]): 3.02
- log2 fold change expression hilD (SPI-encoded genes; [3]): 1.95
- SseF-HiBiT secretion, % of the control [1]: 37%
- Molecular Mass of HilD, Measured (HilD; HilD + C26 100 μM, theoretical dimer 70.4): 69.8 kDa
- oligomerization state of HilD (HilD; equimolar C26 (100 μM)): no effect on the oligomerization state
- levels of cross-linked HilD dimer (HilD dimer): did not affect the levels of cross-linking
- activity on the most frequent HilD substitution variants (HilD variants): inhibitory activity on all the tested variants at a level similar to that of the WT reference sequence
